Measured values taken from patent EP0430884B1, “Insecticides and antiparasitic agents” (CIBA-GEIGY AG, priority 1989, dated 1991).

Tested on: Haemonchus contortus und Trichostrongylus colubriformis
Assay: B-3 test on sheep infected with nematodes (worm egg count in faeces)
Format: in vivo, Schafe
Excerpt: Milbemycine mit einer 13β-Alkylthiogruppe sind als Insektizide und Parasitizide aus der Europäischen Offenlegungsschrift EP-0,184,173 bzw. dem korrespondierenden Britischen Patent GB-2,167,751B bekannt. Die biologische Aktivität der 13β-Ethylthiomilbemycine kann man jedoch überraschenderweise durch Einführung der erfindungsgemässen, terminalen [drawing 26] (worin R₃ und X die unter Formel I angegebenen Bedeutungen haben) in die 2-Position der 13β-Ethylgruppe signifikant erhöhen. Vergleicht man z.B. die Verbindung Nr. 1.14 aus obigen Publikationen [drawing 27] mit der erfindungsgemässen Substanz Nr. 1.13 (vgl. Tab. 1) [drawing 28] gemäss dem weiter unten beschriebenen biologischen Beispiel B-3 an Schafen, die mit den Nematoden Haemonchus contortus und Trichostrongylus colubriformis infiziert wurden, so findet man bei einmaliger intraruminaler Applikation von 0,1 mg Aktivsubstanz/kg Körpergewicht folgende Resultate (angegeben in Reduktion der Wurmeier im Kot verglichen mit der Zahl der Eier bei infizierten, aber unbehandelten Schafen):
Der Wirkstoff wird als Suspension formuliert mit einer Magensonde oder durch Injektion in den Pansen eines Schafes gegeben, das mit Haemonchus contortus und Trychostrongylus colubriformis künstlich infiziert worden ist. Pro Dosis werden 1 bis 3 Tiere verwendet. […]

Structure (SMILES): CC[C@H]1O[C@]2(CC[C@@H]1C)C[C@@H]1C[C@@H](C/C=C(\C)[C@H](SCCc3ccc(NC(=O)OC)cc3)[C@@H](C)/C=C/C=C3\CO[C@@H]4[C@H](O)C(C)=C[C@@H](C(=O)O1)[C@]34O)O2 [1.13, 13β-(2-[4-(Methoxycarbonylamino)phenyl]ethylthio)milbemycin A4]
- Reduktion der Wurmeier im Kot verglichen mit der Zahl der Eier bei infizierten, aber unbehandelten Schafen (Versuch 1, single intraruminal application of 0,1 mg Aktivsubstanz/kg Körpergewicht): 99%
- Reduktion der Wurmeier im Kot verglichen mit der Zahl der Eier bei infizierten, aber unbehandelten Schafen (Versuch 2 (Wiederholung von 1), single intraruminal application of 0,1 mg Aktivsubstanz/kg Körpergewicht): 93%
